Assay [1] concerns glucocorticoid receptor (GR)-dependent transcriptional activity, MDA-kb2 cells. Nature of the assay: GR-mediated transcription, luciferase reporter in MDA-kb2 cells (dexamethasone). To be noted: DEX 100 nM. (In general: Reporter assays use an easily measured gene product as a stand-in for the process of interest.)
Assay [2] concerns T47D estrogen-depleted cells. Nature of the assay: E2-induced proliferation of estrogen-depleted cells (AUC of growth kinetics). Format: cell-based. Particulars: Homo sapiens, T47D, 240 h, read-out: AUC (%) EC50 (μM). Here is the method: To monitor long-term growth, human ER+ BC (T47-D, MCF-7, MCF-7/BUS), ER+ endometrial (Ishiwaka, High Point, NC, USA), or non-malignant breast (MCF-10A) cells were seeded at 3000–6000 cells per well. […] When indicated, cells were estrogen-deprived in a 10DCC-FBS supplemented medium for one week. […] Cytotoxicity was monitored by using YOYO-1 (Invitrogen, Waltham, MA, USA). Cell proliferation and cytotoxicity were monitored by sequential real-time microphotographs in an IncuCyte HD real-time imaging system (Essen BioScience, Hertfordshire, UK) for 5–10 days. The area under the curve (AUC) was then analyzed to know both the kinetics and dose-effect relationships. […] Next, cells were treated with VEH (0.05% DMSO) or test compounds for 5–10 days. Spheroid size and cell cytotoxicity were recorded with the Incucyte SX5 Live-Cell Analysis Instrument (Sartorius AG, Göttingen, Germany). To calculate the spheroid growth area, confluence measurements were taken considering the largest brightfield object area (µm^2). Cytotoxicity was monitored by using YOYO-1 (Essen Bioscience, Hertfordshire, UK).

Assay [3] relates to ERα-mediated transcription (3xERE-luciferase), T47D-KBluc cells. Nature of the assay: ER-dependent transcriptional activity, 3xERE-luciferase reporter in T47D-KBluc cells. Particulars: for effect on E2-induced luciferase activity: until dropping to 20% Emax.
For assay [4], the system named is alkaline phosphatase (ALP) activity in Ishikawa cells. Kind of assay: Alkaline phosphatase assay. Format: cell-based, human. To be noted: E2 10 nM. How it is done: Human endometrium cells ([…]) were cultured in MEM without phenol red with Earle's Salts culture, which was supplemented with estrogen-deprived 10 DCC-FBS du-ring 5 days. […] Cells were washed with ice-cold PBS, and Alkaline Phosphatase (ALP) activity was measured by using ALP Assay Kit (Abcam, Cambridge, MA, USA). The substrate p-nitrophenyl phosphate (pNPP) and the ALP enzyme were used to detect ALP activity by the analysis of the optical density at 405 nm in the iMark microplate Reader (Bio-Rad, Irvine, CA, USA). […] Protein concentration was quantified with the bicinchoninic acid assay (BCA) kit (Bio-Rad).

Assay [5] relates to T47D cells. Kind of assay: MTT cell viability assay. Format: cell-based, human. To be noted: Homo sapiens, T47D, 72 h, 10%FBS growth media. How it is done:
Straightforward, the tetrazolium salt 3-(4,5-methyltiazol-2yl-)-2,5diphenyl-tetrazolium bromide (MTT) (Applichen, Darmstadt, Germany) was added to cells, incubated for 2–4 h at 37 °C, and lysed in 10% SDS. The mitochondrial metabolization of the tetrazolium salt was determined by the analysis of the optical density at 595 nm, measured with the iMark microplate Reader (Bio–Rad, Irvine, CA, USA).
(In general: Tetrazolium assays rely on reduction of a dye to a coloured formazan, in cell work by metabolically active cells.)

Assay [6] concerns VERO cells. Kind of assay: MTT cell viability assay. It counts as cell-based, monkey. To be noted: Primates, Vero, 72 h, 10%FBS growth media. Here is the method: (§1) Straightforward, the tetrazolium salt 3-(4,5-methyltiazol-2yl-)-2,5diphenyl-tetrazolium bromide (MTT) (Applichen, Darmstadt, Germany) was added to cells, incubated for 2–4 h at 37 °C, and lysed in 10% SDS.
Assay [7] has as its system SK-BR-3 cells. Nature of the assay: MTT cell viability assay. It counts as cell-based, human. Particulars: Homo sapiens, SK-BR-3, 72 h, 10%FBS growth media. Here is the method:
as §1

Assay [8] relates to MCF-7 cells. Kind of assay: MTT cell viability assay. It counts as cell-based, human. To be noted: Homo sapiens, MCF7, 72 h, 10%FBS growth media. How it is done: as §1
Assay [9] relates to Hs-578T cells. Nature of the assay: MTT cell viability assay. Format: cell-based, human. To be noted: Homo sapiens, Hs-578T, 72 h, 10%FBS growth media. Here is the method: as §1
Assay [10] deals with MCF-10A cells. Nature of the assay: MTT cell viability assay. Format: cell-based, human. To be noted: Homo sapiens, MCF-10A, 72 h, 10%FBS growth media. How it is done: as §1
The test system of assay [11] is MDA-MB-231 cells. Kind of assay: MTT cell viability assay. To be noted: Homo sapiens, MDA-MB-231, 72 h, 10%FBS growth media. Format: cell-based, human. How it is done:
as §1

Assay [12] deals with Ishikawa cells. Nature of the assay: MTT cell viability assay. Format: cell-based, human. Particulars: Homo sapiens, Ishikawa, read-out: IC50 (μM) ISHIKAWA, 72 h, 10%FBS growth media. Here is the method:
as §1

Assay [13] concerns MCF-7/BUS cells. Nature of the assay: MTT cell viability assay. It counts as cell-based, human. Particulars: Homo sapiens, MCF7/BUS, 72 h, read-out: IC50 (μM) MCF-7/BUS. How it is done:
as §1

Assay [14] relates to BT-549 cells. Nature of the assay: MTT cell viability assay. Format: cell-based, human. Particulars: Homo sapiens, BT-549, 72 h, 10%FBS growth media. Here is the method:
as §1

Consider twelve compounds from publication PMC9655618 (Cancers, 2022).

Like-named read-outs stand apart in the source and are kept apart here.

Take `C[C@@H]1C[C@H]2[C@@H]3CCC4=CC(=O)C=C[C@]4(C)[C@@]3(F)[C@@H](O)C[C@]2(C)[C@@]1(O)C(=O)CO` [DEX, dexamethasone, reference compound]: the “maximal luciferase activity or Emax” value in assay [1] is on record as 42.07 ± 14.33 fold induction.

The term EC50 denotes the concentration needed to bring the measured effect to its halfway point. Usually Emax stands for the greatest response seen or fitted, relative to the assay's reference. In the case of `C[C@]12CC[C@@H]3c4ccc(O)cc4CC[C@H]3[C@@H]1CC[C@@H]2O` [E2, 17β-estradiol, reference compound], the concentration giving a half-maximal response (EC50) in assay [2] is 0.0071 nM; in assay [3] (Homo sapiens, read-out: EC50 of E2, ER-dependent transcriptional activity, E2 alone (E2+VEH)), 4.48 ± 0.42 pM; in assay [3] (read-out: EC50 of E2, ER-dependent transcriptional activity, E2 alone (E2+VEH)), 4.57 ± 0.42 pM. The “maximal activity (Emax) reached by E2” value in assay [3] (E2+VEH) was found to be 104.90 ± 2.01%. Also, in assay [3] (Homo sapiens, read-out: maximal activity (Emax) reached by E2, E2+VEH), the Emax is 99.8 ± 8.44%. The “maximal luciferase activity or Emax” value in [3] (induced by E2) amounted to 15.19 ± 1.71 fold induction. In addition, in [4], the “increase of ALP activity” value was determined as 30 fold.

As for `CCCc1c(-c2ccc(O)cc2)nn(-c2ccc(O)cc2)c1-c1ccc(O)cc1` [PPT, 1,3,5-tris(4-hydroxyphenyl)-4-propyl-1H-pyrazole, reference compound], in assay [2], the half-maximal effective concentration (EC50) turned out to be 0.157 nM.

Consider `O=C1C(c2ccccc2)=CC(O)(c2ccccc2)N1C1CCCCC1` (centres unmarked) [compound 4, 1-cyclohexyl-5-hydroxy-3,5-diphenyl-1H-pyrrol-2(5H)-one], for which the IC50 in assay [5] was over 10 µM; in assay [6], over 25 µM; in assay [7] it was over 10 µM; in assay [8], over 10 µM; in assay [9] it was over 10 µM; in assay [10] it was 7.17 ± 2.07 µM. For the same compound, the IC50 in assay [11] and in [12] was over 10 µM throughout. For the same compound, the “effect on E2-induced luciferase activity” value in assay [3] is listed as “reduced E2-induced luciferase activity”.

For the compound `COc1ccc(C2(O)C=C(c3ccccc3)C(=O)N2Cc2ccccc2)cc1` (centres unmarked) [compound 8, 1-benzyl-5-hydroxy-5-(4-methoxyphenyl)-3-phenyl-1H-pyrrol-2(5H)-one], in assay [3], the “effect on E2-induced luciferase activity” value is “reduced E2-induced luciferase activity”.

Take `COc1ccc(N2C(=O)C(c3ccccc3)=CC2(O)c2ccc(OC)cc2)cc1` (centres unmarked) [compound 9, 5-hydroxy-1,5-bis(4-methoxyphenyl)-3-phenyl-1H-pyrrol-2(5H)-one]: the IC50 in assay [5], in assay [7], in assay [8], in [9], in assay [13] and in [14] was over 10 µM each time. This compound gave an IC50 in assay [11] of over 10 µM.

In the case of `COc1ccc(C2=CC(O)(c3ccccc3)N(C3CCCCC3)C2=O)cc1F` (centres unmarked) [compound 16, 1-cyclohexyl-3-(3-fluoro-4-methoxyphenyl)-5-hydroxy-5-phenyl-1H-pyrrol-2(5H)-one], the IC50 in assay [5], in assay [7], in [8], in assay [9], in assay [13] and in assay [14] was over 10 µM throughout. Besides, the IC50 in [11] and in assay [12] was over 10 µM in each case. The “estrogenic effect on ER-dependent transcriptional activity” value in [3] (10 μM, absence of E2) was “partial induction of ER-dependent transcriptional activity”.

In the case of `O=C1C(c2ccc3c(c2)OCO3)=CC(O)(c2ccccc2)N1Cc1ccccc1` (centres unmarked) [compound 26, 3-(benzo[d][1,3]dioxol-5-yl)-1-benzyl-5-hydroxy-5-phenyl-1H-pyrrol-2(5H)-one], the IC50 in assay [5] is over 10 µM; in assay [7] it was over 10 µM; in assay [8], over 10 µM; in [9], over 10 µM; in [11], 9.71 ± 0.3 µM; in [12], 10.1 ± 0.11 µM. Moreover, the “effect on E2-induced luciferase activity” value in assay [3] was “reduced E2-induced luciferase activity”.

As to `COc1ccc(N2C(=O)C(c3cccc([N+](=O)[O-])c3)=CC2(O)c2cccc(OC)c2)cc1` (centres unmarked) [compound 38, 5-hydroxy-5-(3-methoxyphenyl)-1-(4-methoxyphenyl)-3-(3-nitrophenyl)-1H-pyrrol-2(5H)-one], the IC50 in assay [5] is over 10 µM; in assay [6], over 25 µM; in [7], over 10 µM; in assay [8] it was over 10 µM; in assay [9], over 10 µM; in assay [10] it was over 10 µM. The IC50 in assay [11] and in [12] was over 10 µM in each case. The “effect on E2-induced luciferase activity” value in assay [3] is recorded as “reduced E2-induced luciferase activity”.

For the compound `COc1ccc(C2=CC(O)(c3cccc([N+](=O)[O-])c3)N(Cc3ccccc3)C2=O)cc1` (centres unmarked) [compound 40, 1-benzyl-5-hydroxy-3-(4-methoxyphenyl)-5-(3-nitrophenyl)-1H-pyrrol-2(5H)-one], the “effect on E2-induced luciferase activity” value in [3] was “reduced E2-induced luciferase activity”.

On to `COc1cccc(C2=CC(O)(c3ccc([N+](=O)[O-])cc3)N(Cc3ccccc3)C2=O)c1` (centres unmarked) [compound 46, 1-benzyl-5-hydroxy-3-(3-methoxyphenyl)-5-(4-nitrophenyl)-1H-pyrrol-2(5H)-one], for which, in assay [3], the “effect on E2-induced luciferase activity” value was “reduced E2-induced luciferase activity”.

For the compound `COc1ccc(N2C(=O)C(c3ccccc3OC)=CC2(O)c2ccc([N+](=O)[O-])cc2)cc1` (centres unmarked) [compound 50, 5-hydroxy-3-(2-methoxyphenyl)-1-(4-methoxyphenyl)-5-(4-nitrophenyl)-1H-pyrrol-2(5H)-one], the IC50 in assay [7] is over 10 µM; in assay [8] it was 6.17 ± 2.66 µM. Further, the “effect on E2-induced luciferase activity” value in assay [3] was “reduced E2-induced luciferase activity”.
